In PubChem BioAssay AID330 (DTP/NCI, 2004):
Several values for one entry are separate records, joined by “and”; a condition that tells them apart may be missing. Equal entries are not always repeated. Toxic doses and inconclusive results are not listed. How the source made its calls: active means survival T/C of 150% or more; inactive means T/C below 125% in these data.

Test system: P388 leukemia ip, CD2F1 mice, survival T/C
Test: NCI In Vivo Anticancer Drug Screen. Data for tumor model P388 Leukemia (intraperitoneal) in CD2F1 (CDF1) mice
Conditions: endpoint: median survival time, higher = longer survival
In short: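 Mice carrying the transplanted tumor received test compound or vehicle. Survival was recorded in each group, and the value is the treated-group measurement divided by that of the vehicle-treated control group.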

[1] = dose: 25.0 mg/kg/injection, schedule: Q01DX009 (ip), vehicle: saline with Tween-80
[2] = dose: 50.0 mg/kg/injection, schedule: Q01DX009 (ip), vehicle: saline with Tween-80
[3] = dose: 100.0 mg/kg/injection, schedule: Q01DX009 (ip), vehicle: saline with Tween-80
[4] = dose: 100.0 mg/kg/injection, schedule: Q01DX009 (ip), vehicle: saline
[5] = dose: 200.0 mg/kg/injection, schedule: Q01DX009 (ip), vehicle: saline with Tween-80
[6] = dose: 200.0 mg/kg/injection, schedule: Q01DX009 (ip), vehicle: saline
[7] = dose: 400.0 mg/kg/injection, schedule: Q01DX009 (ip), vehicle: saline with Tween-80
[8] = dose: 60.0 mg/kg/injection, schedule: Q01DX005 (ip), vehicle: saline with Tween-80
[9] = dose: 120.0 mg/kg/injection, schedule: Q01DX005 (ip), vehicle: saline with Tween-80
[10] = dose: 240.0 mg/kg/injection, schedule: Q01DX005 (ip), vehicle: saline with Tween-80
[11] = dose: 60.0 mg/kg/injection, schedule: Q01DX005 (ip), vehicle: Klucel (hydroxypropylcellulose) (HPC)
[12] = dose: 120.0 mg/kg/injection, schedule: Q01DX005 (ip), vehicle: Klucel (hydroxypropylcellulose) (HPC)
[13] = dose: 240.0 mg/kg/injection, schedule: Q01DX005 (ip), vehicle: Klucel (hydroxypropylcellulose) (HPC)
[14] = dose: 50.0 mg/kg/injection, schedule: Q01DX005 (ip), vehicle: Klucel (hydroxypropylcellulose) (HPC)
[15] = dose: 100.0 mg/kg/injection, schedule: Q01DX005 (ip), vehicle: Klucel (hydroxypropylcellulose) (HPC)
[16] = dose: 200.0 mg/kg/injection, schedule: Q01DX005 (ip), vehicle: Klucel (hydroxypropylcellulose) (HPC)
[17] = dose: 100.0 mg/kg/injection, schedule: Q01DX009 (ip), vehicle: Klucel (hydroxypropylcellulose) (HPC)
[18] = dose: 50.0 mg/kg/injection, schedule: Q01DX005 (ip), vehicle: saline with Tween-80
[19] = dose: 100.0 mg/kg/injection, schedule: Q01DX005 (ip), vehicle: saline with Tween-80
[20] = dose: 200.0 mg/kg/injection, schedule: Q01DX005 (ip), vehicle: saline with Tween-80

Measured: T/C

COc1cc(O)c(C(c2ccccc2)c2c(O)c(C)c(O)c3c2OC(c2ccccc2)CC3=O)c(O)c1C (configuration not stated)
inactive: dose: 5.0 mg/kg/injection, schedule: Q01DX009 (ip), vehicle: Klucel (hydroxypropylcellulose) (HPC) 99 % of control | dose: 10.0 mg/kg/injection, schedule: Q01DX009 (ip), vehicle: Klucel (hydroxypropylcellulose) (HPC) 99 % of control | dose: 20.0 mg/kg/injection, schedule: Q01DX009 (ip), vehicle: Klucel (hydroxypropylcellulose) (HPC) 103 % of control | dose: 40.0 mg/kg/injection, schedule: Q01DX009 (ip), vehicle: Klucel (hydroxypropylcellulose) (HPC) 99 % of control

COC1C(OC(=O)c2ccc(C)[nH]2)C(O)C(Oc2ccc3c(O)c(NC(=O)c4c[nH]c(C(=O)Nc5c(O)c6ccc(OC7OC(C)(C)C(OC)C(OC(=O)c8ccc(C)[nH]8)C7O)c(C)c6oc5=O)c4C)c(=O)oc3c2C)OC1(C)C (configuration not stated)
inactive: dose: 6.25 mg/kg/injection, schedule: Q01DX009 (ip), vehicle: saline with Tween-80 110 % of control and 97 % of control | dose: 12.5 mg/kg/injection, schedule: Q01DX009 (ip), vehicle: saline with Tween-80 100 % of control and 122 % of control | [1] 96 % of control | [2] 103 % of control | dose: 50.0 mg/kg/injection, schedule: Q01DX009 (ip), vehicle: saline 118 % of control | [3] 90 % of control | [4] 113 % of control | dose: 100.0 mg/kg/injection, schedule: Q04DX003 (ip), vehicle: saline with Tween-80 109 % of control | [5] 109 % of control | [6] 102 % of control | dose: 200.0 mg/kg/injection, schedule: Q04DX003 (ip), vehicle: saline with Tween-80 100 % of control | [7] 100 % of control | dose: 400.0 mg/kg/injection, schedule: Q01DX009 (ip), vehicle: saline 117 % of control | dose: 400.0 mg/kg/injection, schedule: Q04DX003 (ip), vehicle: saline with Tween-80 109 % of control

NC(=O)c1nnn(Cc2ccccc2)c1N
inactive: [1] 119 % of control | [2] 102 % of control | [3] 109 % of control | [5] 106 % of control | [7] 110 % of control

CCC(/C=C/c1ccc(C)cc1)=N\NC(=O)c1ccccc1
inactive: [8] 98 % of control | [9] 89 % of control | [10] 90 % of control

COc1cc(C[C@@H](CO)[C@H](CO)Cc2ccc3c(c2)OCO3)cc(OC)c1OC
inactive: dose: 6.25 mg/kg/injection, schedule: Q04DX002 (ip), vehicle: saline with Tween-80 101 % of control | dose: 12.5 mg/kg/injection, schedule: Q04DX002 (ip), vehicle: saline with Tween-80 101 % of control | dose: 25.0 mg/kg/injection, schedule: Q04DX002 (ip), vehicle: saline with Tween-80 93 % of control

COc1ccc(CCN(Cc2ccc([N+](=O)[O-])cc2)C(=O)c2ccccc2)c(C=O)c1OC
inactive: dose: 100.0 mg/kg/injection, schedule: Q01DX001 (ip), vehicle: saline + alcohol 95 % of control | dose: 200.0 mg/kg/injection, schedule: Q01DX001 (ip), vehicle: saline + alcohol 97 % of control | dose: 400.0 mg/kg/injection, schedule: Q01DX001 (ip), vehicle: saline + alcohol 89 % of control

O=P(c1ccccc1)(c1ccccc1)c1ccccc1 (tested in a mixture with another compound)
inactive: dose: 25.0 mg/kg/injection, schedule: Q01DX009 (ip), vehicle: other 89 % of control

CC1CCn2c(nc3c2c(=O)n(C)c(=O)n3C)N1 (configuration not stated)
inactive: [8] 102 % of control and 100 % of control | [9] 93 % of control and 94 % of control | [10] 93 % of control and 91 % of control

CCN(CC)C(=O)CCc1ccc(Cl)cc1
inactive: [11] 104 % of control | [12] 95 % of control | [13] 102 % of control

CCNCCNc1cc(O)c2c(c1O)C(=O)c1ccccc1C2=O
inactive: dose: 25.0 mg/kg/injection, schedule: Q01DX005 (ip), vehicle: Klucel (hydroxypropylcellulose) (HPC) 101 % of control and 102 % of control | [14] 110 % of control and 111 % of control | [15] 111 % of control and 112 % of control | [16] 122 % of control

CC(=O)OCc1c(COC(C)=O)c(-c2ccc(Cl)c(Cl)c2)n2c1CCC2
inactive: [17] 122 % of control

COC(=O)c1c(-c2ccc(OC)c(OC)c2)cn(C)c1C
inactive: [18] 104 % of control | [19] 96 % of control | [20] 91 % of control

CC1C(=O)C=C(c2ccccc2)C1(O)c1ccccc1 (configuration not stated)
inactive: dose: 100.0 mg/kg/injection, schedule: Q01DX001 (ip), vehicle: saline with Tween-80 104 % of control | dose: 200.0 mg/kg/injection, schedule: Q01DX001 (ip), vehicle: saline with Tween-80 103 % of control

N#CNC1=NCOCN1
inactive: [8] 100 % of control | [9] 100 % of control

CCCCCCC(/C=C/c1ccc(Cl)c(Cl)c1)=N\Nc1c(F)c(F)c(F)c(F)c1F
inactive: [2] 86 % of control | [3] 99 % of control | [5] 98 % of control

Nc1nc2ncc(CCCl)cc2c(=O)[nH]1
inactive: [14] 102 % of control | [15] 123 % of control | [16] 107 % of control

COC(c1ccccc1)(c1ccccc1)c1ccc2ccc3ccccc3c2c1
inactive: [14] 91 % of control | [15] 96 % of control | [16] 95 % of control

COc1ccc(C(=O)C2=C(C)Nc3ccc(Br)cc3S2)cc1
inactive: [8] 101 % of control | [9] 110 % of control | [10] 105 % of control

O=C1C(c2nc3ccccc3[nH]2)=C(O)c2ccccc21
inactive: [11] 87 % of control | [12] 87 % of control | [13] 87 % of control

Nc1cc([N+](=O)[O-])ccc1O
inactive: [4] 102 % of control and 105 % of control | [6] 101 % of control | dose: 600.0 mg/kg/injection, schedule: Q01DX009 (ip), vehicle: saline 91 % of control

O=C(NC(ON1CCCCC1)C(=O)O)c1ccccc1 (configuration not stated)
inactive: dose: 50.0 mg/kg/injection, schedule: Q01DX009 (ip), vehicle: Klucel (hydroxypropylcellulose) (HPC) 104 % of control | [17] 102 % of control | dose: 200.0 mg/kg/injection, schedule: Q01DX009 (ip), vehicle: Klucel (hydroxypropylcellulose) (HPC) 98 % of control

N#CC1C(C#N)C2(c3ccccc3)C(c3ccccc3)=NN(c3ccccc3)CC12 (configuration not stated)
inactive: dose: 25.0 mg/kg/injection, schedule: Q01DX001 (ip), vehicle: Klucel (hydroxypropylcellulose) (HPC) 91 % of control | dose: 50.0 mg/kg/injection, schedule: Q01DX001 (ip), vehicle: Klucel (hydroxypropylcellulose) (HPC) 95 % of control | dose: 100.0 mg/kg/injection, schedule: Q01DX001 (ip), vehicle: Klucel (hydroxypropylcellulose) (HPC) 87 % of control

Cc1cccc(Nc2c(C(=O)O)cnc3cc4c(cc23)OCO4)c1C
inactive: dose: 30.0 mg/kg/injection, schedule: Q01DX005 (ip), vehicle: Klucel (hydroxypropylcellulose) (HPC) 94 % of control | [11] 96 % of control | [12] 99 % of control and 103 % of control | [13] 111 % of control

N/C(CC(=O)Nc1cc(C(F)(F)F)ccc1Cl)=N\O
inactive: [8] 108 % of control | [9] 100 % of control | [10] 108 % of control

O=C1CC2C(=O)NC(=O)C2C(=O)N1 (configuration not stated)
inactive: [18] 104 % of control | [19] 101 % of control | [20] 99 % of control

COCCCNCC(=O)Nc1ccc(S(=O)(=O)c2ccc(NC(=O)CNCCCOC)cc2)cc1
inactive: dose: 50.0 mg/kg/injection, schedule: Q01DX005 (ip), vehicle: acid diluted with saline 107 % of control | dose: 100.0 mg/kg/injection, schedule: Q01DX005 (ip), vehicle: acid diluted with saline 104 % of control | dose: 200.0 mg/kg/injection, schedule: Q01DX005 (ip), vehicle: acid diluted with saline 112 % of control

N=C(N)c1nn(C2OC(CO)C(O)C2O)c2nc[nH]c(=O)c12 (configuration not stated)
inactive: dose: 12.5 mg/kg/injection, schedule: Q01DX005 (ip), vehicle: saline with Tween-80 121 % of control | dose: 25.0 mg/kg/injection, schedule: Q01DX005 (ip), vehicle: saline with Tween-80 124 % of control

O=NN(Cc1ccc(Cl)cc1)C(C(=O)O)c1ccccc1 (configuration not stated)
inactive: dose: 60.0 mg/kg/injection, schedule: Q01DX005 (ip), vehicle: Klucel + Tween-80 103 % of control | dose: 120.0 mg/kg/injection, schedule: Q01DX005 (ip), vehicle: Klucel + Tween-80 103 % of control
